Measured values reported in ChEMBL document CHEMBL3108715, “Pan-histone demethylase inhibitors simultaneously targeting Jumonji C and lysine-specific demethylases display high anticancer activities” (J Med Chem, 2014).
Active and inactive are the calls of the source.

Experiments:
Type in all cases: functional, cell-based
LNCaP [1] = test: Antimigratory activity against human LNCAP cells at 50 uM after 72 hrs
HCT-116 [2] = test: Cytotoxicity against human HCT116 cells at 50 uM after 72 hrs
LNCaP [3] = test: Cytotoxicity against human LNCAP cells at 50 uM after 72 hrs
HCT-116 [4] = test: Antimigratory activity against human HCT116 cells at 50 uM after 72 hrs

Measured: Activity

O=C(CCCCCCC(=O)Nc1ccccc1)NO
active: all assays above
